{"source": "paper PMC11873239", "about": "“A covalent chemical probe for Chikungunya nsP2 cysteine protease with antialphaviral activity and proteome-wide selectivity” (Scientific Reports, 2025)", "key": {"CHIKV-nLuc": {"test_system": "CHIKV-nLuc", "assay": "microbe, parasite or virus in culture", "format": "cell-based", "settings": "Chikungunya virus, MRC5, 6 h, read-out: EC50 (CHIKV-nLuc replication)"}, "[1]": {"target": "HEK293 cell lysate proteins (Homo sapiens, UniProt Q13428)", "sequence (Q13428 whole entry)": "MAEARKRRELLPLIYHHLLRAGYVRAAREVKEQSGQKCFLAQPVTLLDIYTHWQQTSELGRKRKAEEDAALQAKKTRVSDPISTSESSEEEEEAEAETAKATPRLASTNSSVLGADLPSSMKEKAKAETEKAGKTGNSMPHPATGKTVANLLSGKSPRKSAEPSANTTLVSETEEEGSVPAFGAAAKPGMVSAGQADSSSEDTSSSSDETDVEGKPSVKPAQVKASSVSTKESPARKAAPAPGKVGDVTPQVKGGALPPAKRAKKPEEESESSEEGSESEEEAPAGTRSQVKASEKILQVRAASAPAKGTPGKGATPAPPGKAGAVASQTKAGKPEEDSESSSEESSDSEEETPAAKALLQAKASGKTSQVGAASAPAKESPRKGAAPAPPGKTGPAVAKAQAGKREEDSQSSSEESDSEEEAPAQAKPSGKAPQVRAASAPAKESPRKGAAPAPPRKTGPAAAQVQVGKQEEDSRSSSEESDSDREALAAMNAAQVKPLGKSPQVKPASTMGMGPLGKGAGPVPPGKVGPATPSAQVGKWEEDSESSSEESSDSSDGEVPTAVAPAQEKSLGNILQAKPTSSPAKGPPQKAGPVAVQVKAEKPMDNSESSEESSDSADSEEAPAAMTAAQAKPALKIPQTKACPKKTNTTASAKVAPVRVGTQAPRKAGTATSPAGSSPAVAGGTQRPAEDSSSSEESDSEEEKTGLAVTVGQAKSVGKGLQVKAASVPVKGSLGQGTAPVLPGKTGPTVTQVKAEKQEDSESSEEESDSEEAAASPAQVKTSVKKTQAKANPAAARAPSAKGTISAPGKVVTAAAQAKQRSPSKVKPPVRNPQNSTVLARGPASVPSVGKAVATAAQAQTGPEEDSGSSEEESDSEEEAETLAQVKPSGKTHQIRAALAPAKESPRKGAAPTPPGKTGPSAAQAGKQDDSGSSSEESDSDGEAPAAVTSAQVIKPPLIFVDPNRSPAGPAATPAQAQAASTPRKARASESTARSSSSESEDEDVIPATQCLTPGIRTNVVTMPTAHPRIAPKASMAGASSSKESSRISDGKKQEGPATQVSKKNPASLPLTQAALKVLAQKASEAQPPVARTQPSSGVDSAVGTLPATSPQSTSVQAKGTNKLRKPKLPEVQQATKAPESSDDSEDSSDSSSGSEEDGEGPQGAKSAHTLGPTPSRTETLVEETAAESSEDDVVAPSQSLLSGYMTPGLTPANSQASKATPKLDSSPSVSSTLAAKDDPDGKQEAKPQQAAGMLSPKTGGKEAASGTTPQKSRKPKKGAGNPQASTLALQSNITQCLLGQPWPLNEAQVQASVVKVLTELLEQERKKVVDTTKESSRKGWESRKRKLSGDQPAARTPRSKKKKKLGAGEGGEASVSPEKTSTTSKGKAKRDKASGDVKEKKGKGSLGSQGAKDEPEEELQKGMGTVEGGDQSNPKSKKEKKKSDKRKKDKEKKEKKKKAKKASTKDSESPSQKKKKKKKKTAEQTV", "format": "binding"}, "[2]": {"target": "HEK293 cell lysate proteins (Homo sapiens, UniProt P60709)", "format": "binding"}, "[3]": {"target": "HEK293 cell lysate proteins (Homo sapiens, UniProt P61626)", "format": "binding"}, "[4]": {"target": "HEK293 cell lysate proteins (Homo sapiens, UniProt P26358)", "sequence (P26358 whole entry)": "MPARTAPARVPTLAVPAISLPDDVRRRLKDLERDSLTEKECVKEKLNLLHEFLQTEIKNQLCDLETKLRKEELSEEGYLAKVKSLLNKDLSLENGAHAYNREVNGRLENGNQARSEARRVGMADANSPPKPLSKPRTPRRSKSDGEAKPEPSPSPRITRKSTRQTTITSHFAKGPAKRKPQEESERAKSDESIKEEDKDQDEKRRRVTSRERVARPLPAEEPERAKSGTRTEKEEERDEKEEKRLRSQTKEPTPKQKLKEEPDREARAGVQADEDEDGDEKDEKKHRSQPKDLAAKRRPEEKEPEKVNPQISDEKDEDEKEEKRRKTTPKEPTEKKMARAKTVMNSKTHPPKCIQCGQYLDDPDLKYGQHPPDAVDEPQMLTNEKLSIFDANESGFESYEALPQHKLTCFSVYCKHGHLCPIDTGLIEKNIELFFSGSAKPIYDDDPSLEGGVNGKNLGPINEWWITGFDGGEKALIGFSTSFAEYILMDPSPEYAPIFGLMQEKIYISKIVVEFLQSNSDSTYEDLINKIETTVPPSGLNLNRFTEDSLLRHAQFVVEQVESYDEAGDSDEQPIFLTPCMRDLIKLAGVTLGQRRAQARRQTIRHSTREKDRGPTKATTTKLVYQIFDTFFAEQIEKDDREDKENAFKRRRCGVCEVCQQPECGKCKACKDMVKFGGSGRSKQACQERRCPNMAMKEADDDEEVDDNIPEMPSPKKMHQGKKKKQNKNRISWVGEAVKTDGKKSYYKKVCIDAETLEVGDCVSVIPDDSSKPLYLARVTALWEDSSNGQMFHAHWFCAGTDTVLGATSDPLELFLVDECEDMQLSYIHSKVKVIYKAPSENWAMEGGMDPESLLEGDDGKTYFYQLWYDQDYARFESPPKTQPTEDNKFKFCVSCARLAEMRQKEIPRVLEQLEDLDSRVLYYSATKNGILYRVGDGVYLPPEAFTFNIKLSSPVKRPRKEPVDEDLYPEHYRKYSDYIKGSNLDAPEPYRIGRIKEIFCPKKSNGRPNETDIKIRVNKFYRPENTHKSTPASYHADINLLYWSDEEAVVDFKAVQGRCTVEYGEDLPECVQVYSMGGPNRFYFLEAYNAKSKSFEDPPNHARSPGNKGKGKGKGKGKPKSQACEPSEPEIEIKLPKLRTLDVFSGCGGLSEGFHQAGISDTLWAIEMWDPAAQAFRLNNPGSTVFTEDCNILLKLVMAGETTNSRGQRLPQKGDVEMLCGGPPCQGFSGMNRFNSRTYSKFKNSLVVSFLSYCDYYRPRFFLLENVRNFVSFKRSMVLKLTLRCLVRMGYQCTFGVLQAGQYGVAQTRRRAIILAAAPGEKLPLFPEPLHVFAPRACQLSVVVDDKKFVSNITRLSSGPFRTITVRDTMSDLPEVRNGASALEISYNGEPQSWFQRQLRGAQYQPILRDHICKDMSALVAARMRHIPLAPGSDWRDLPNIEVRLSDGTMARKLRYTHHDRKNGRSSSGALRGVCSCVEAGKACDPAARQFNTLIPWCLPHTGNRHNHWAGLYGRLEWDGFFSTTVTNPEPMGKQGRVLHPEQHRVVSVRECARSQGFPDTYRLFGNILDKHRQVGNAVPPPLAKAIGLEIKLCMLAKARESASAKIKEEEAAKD", "format": "binding"}, "[5]": {"target": "HEK293 cell lysate proteins (Homo sapiens, UniProt P84103)", "format": "binding"}, "[6]": {"target": "HEK293 cell lysate proteins (Homo sapiens, UniProt P04406)", "format": "binding"}, "[7]": {"target": "HEK293 cell lysate proteins (Homo sapiens, UniProt P02788)", "format": "binding"}, "[8]": {"target": "HEK293 cell lysate proteins (Homo sapiens, UniProt P04040)", "format": "binding"}, "[9]": {"target": "HEK293 cell lysate proteins (Homo sapiens, UniProt P22528)", "format": "binding"}, "[10]": {"target": "HEK293 cell lysate proteins (Homo sapiens, UniProt Q5T750)", "sequence (Q5T750 whole entry)": "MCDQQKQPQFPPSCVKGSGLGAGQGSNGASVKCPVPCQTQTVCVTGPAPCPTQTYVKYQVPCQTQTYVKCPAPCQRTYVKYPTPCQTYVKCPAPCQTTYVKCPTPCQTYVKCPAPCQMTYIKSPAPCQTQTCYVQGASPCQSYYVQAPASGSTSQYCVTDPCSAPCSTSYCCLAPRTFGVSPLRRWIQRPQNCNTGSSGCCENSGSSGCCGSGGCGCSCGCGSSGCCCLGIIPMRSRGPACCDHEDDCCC", "format": "binding"}, "[11]": {"target": "HEK293 cell lysate proteins (Homo sapiens, UniProt Q12872)", "format": "binding"}, "[12]": {"target": "HEK293 cell lysate proteins (Homo sapiens, UniProt Q14684)", "format": "binding"}, "[13]": {"target": "HEK293 cell lysate proteins (Homo sapiens, UniProt Q13835)", "format": "binding"}, "[14]": {"target": "HEK293 cell lysate proteins (Homo sapiens, UniProt P15924)", "format": "binding"}, "[15]": {"target": "HEK293 cell lysate proteins (Homo sapiens, UniProt Q8N1N4)", "format": "binding"}, "[16]": {"target": "HEK293 cell lysate proteins (Homo sapiens, UniProt Q3KQU3)", "sequence (Q3KQU3 whole entry)": "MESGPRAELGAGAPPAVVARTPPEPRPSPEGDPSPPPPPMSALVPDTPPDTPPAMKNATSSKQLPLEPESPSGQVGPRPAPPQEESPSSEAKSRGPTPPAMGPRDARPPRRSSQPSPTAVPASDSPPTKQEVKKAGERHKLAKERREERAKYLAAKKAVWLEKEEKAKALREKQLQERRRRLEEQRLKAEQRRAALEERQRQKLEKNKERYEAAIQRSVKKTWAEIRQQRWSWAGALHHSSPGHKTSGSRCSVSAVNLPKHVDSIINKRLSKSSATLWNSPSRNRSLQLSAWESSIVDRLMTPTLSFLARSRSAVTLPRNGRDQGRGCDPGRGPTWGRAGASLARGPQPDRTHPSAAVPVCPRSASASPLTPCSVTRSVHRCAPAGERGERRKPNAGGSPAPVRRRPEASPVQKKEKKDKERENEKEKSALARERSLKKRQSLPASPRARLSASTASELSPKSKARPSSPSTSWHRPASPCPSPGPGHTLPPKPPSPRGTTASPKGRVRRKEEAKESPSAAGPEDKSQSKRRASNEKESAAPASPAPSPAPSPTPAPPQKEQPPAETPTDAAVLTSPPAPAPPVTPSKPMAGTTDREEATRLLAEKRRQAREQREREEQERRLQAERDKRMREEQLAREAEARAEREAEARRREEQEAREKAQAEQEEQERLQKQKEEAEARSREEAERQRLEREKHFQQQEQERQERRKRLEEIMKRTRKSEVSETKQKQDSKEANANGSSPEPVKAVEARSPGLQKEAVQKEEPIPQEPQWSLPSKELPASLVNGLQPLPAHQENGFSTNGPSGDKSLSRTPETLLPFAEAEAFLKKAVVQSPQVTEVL", "format": "binding"}, "[17]": {"target": "HEK293 cell lysate proteins (Homo sapiens, UniProt Q52LG2)", "format": "binding"}, "[18]": {"target": "HEK293 cell lysate proteins (Homo sapiens, UniProt Q15648)", "format": "binding"}, "[19]": {"target": "HEK293 cell lysate proteins (Homo sapiens, UniProt Q96P63)", "sequence (Q96P63 whole entry)": "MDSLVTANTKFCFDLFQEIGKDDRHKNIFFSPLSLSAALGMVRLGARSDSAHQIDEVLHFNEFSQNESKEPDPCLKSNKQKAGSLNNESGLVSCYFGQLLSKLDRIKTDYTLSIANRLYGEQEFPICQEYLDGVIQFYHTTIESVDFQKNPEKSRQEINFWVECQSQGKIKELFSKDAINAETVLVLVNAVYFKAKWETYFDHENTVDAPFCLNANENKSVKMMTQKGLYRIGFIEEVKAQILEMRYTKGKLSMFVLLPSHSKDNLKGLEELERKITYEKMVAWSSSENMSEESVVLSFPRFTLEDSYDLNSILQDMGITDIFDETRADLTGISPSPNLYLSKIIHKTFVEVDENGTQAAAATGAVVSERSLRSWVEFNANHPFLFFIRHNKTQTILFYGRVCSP", "format": "binding"}, "[20]": {"target": "HEK293 cell lysate proteins (Homo sapiens, UniProt P31944)", "format": "binding"}, "[21]": {"target": "HEK293 cell lysate proteins (Homo sapiens, UniProt P07339)", "format": "binding"}, "[22]": {"target": "HEK293 cell lysate proteins (Homo sapiens, UniProt Q6ZVX7)", "sequence (Q6ZVX7 whole entry)": "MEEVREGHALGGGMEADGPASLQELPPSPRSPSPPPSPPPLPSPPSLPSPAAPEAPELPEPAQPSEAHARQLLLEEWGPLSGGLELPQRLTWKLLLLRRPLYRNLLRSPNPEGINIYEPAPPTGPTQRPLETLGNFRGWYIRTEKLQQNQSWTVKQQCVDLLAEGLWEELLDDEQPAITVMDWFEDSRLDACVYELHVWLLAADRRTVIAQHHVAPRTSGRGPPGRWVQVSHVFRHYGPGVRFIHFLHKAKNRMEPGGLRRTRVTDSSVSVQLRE", "format": "binding"}, "[23]": {"target": "HEK293 cell lysate proteins (Homo sapiens, UniProt P31151)", "format": "binding"}, "[24]": {"target": "HEK293 cell lysate proteins (Homo sapiens, UniProt Q14151)", "format": "binding"}, "[25]": {"target": "HEK293 cell lysate proteins (Homo sapiens, UniProt P11586)", "format": "binding"}, "[26]": {"target": "HEK293 cell lysate proteins (Homo sapiens, UniProt Q15517)", "format": "binding"}, "[27]": {"target": "HEK293 cell lysate proteins (Homo sapiens, UniProt Q15424)", "format": "binding"}, "[28]": {"target": "HEK293 cell lysate proteins (Homo sapiens, UniProt P22531)", "format": "binding"}, "[29]": {"target": "HEK293 cell lysate proteins (Homo sapiens, UniProt Q9HCY8)", "format": "binding"}, "[30]": {"target": "HEK293 cell lysate proteins (Homo sapiens, UniProt P32119)", "sequence (P32119 whole entry)": "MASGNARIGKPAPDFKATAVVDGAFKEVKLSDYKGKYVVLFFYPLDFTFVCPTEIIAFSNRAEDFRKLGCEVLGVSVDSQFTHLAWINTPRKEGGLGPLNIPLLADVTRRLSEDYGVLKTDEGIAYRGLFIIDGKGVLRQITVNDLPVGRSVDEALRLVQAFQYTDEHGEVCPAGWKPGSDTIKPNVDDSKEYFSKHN", "format": "binding"}, "[31]": {"target": "HEK293 cell lysate proteins (Homo sapiens, UniProt Q8WVV4)", "format": "binding"}, "[32]": {"target": "HEK293 cell lysate proteins (Homo sapiens, UniProt P81605)", "format": "binding"}}, "data": [{"smiles": "C#CCOc1ccccc1-c1cc(C(=O)NC/C=C/S(C)(=O)=O)on1", "note": "[VS, (E)-N-(3-(methylsulfonyl)allyl)−3-(2-(prop-2-yn-1-yloxy)phenyl)isoxazole-5-carboxamide]", "values": [{"measurement": "EC50", "setting": "CHIKV-nLuc", "value": 33, "unit": "nM"}, {"measurement": "Log2 fold change", "setting": "[1]", "value": 1.02}, {"measurement": "Log2 fold change", "setting": "[2]", "value": 1.54}, {"measurement": "Log2 fold change", "setting": "[3]", "value": 1.36}, {"measurement": "Log2 fold change", "setting": "[4]", "value": 1.64}, {"measurement": "Log2 fold change", "setting": "[5]", "value": 1.43}, {"measurement": "Log2 fold change", "setting": "[6]", "value": 1.78}, {"measurement": "Log2 fold change", "setting": "[7]", "value": 1.10}, {"measurement": "Log2 fold change", "setting": "[8]", "value": 1.41}, {"measurement": "Log2 fold change", "setting": "[9]", "value": 2.72}, {"measurement": "Log2 fold change", "setting": "[10]", "value": 2.49}, {"measurement": "Log2 fold change", "setting": "[11]", "value": -1.75}, {"measurement": "Log2 fold change", "setting": "[12]", "value": -2.16}, {"measurement": "Log2 fold change", "setting": "[13]", "value": 3.81}, {"measurement": "Log2 fold change", "setting": "[14]", "value": 2.05}, {"measurement": "Log2 fold change", "setting": "[15]", "value": 1.62}, {"measurement": "Log2 fold change", "setting": "[16]", "value": -2.07}, {"measurement": "Log2 fold change", "setting": "[17]", "value": 3.14}, {"measurement": "Log2 fold change", "setting": "[18]", "value": -1.21}, {"measurement": "Log2 fold change", "setting": "[19]", "value": 1.71}, {"measurement": "Log2 fold change", "setting": "[20]", "value": 1.29}, {"measurement": "Log2 fold change", "setting": "[21]", "value": 1.67}, {"measurement": "Log2 fold change", "setting": "[22]", "value": 2.74}, {"measurement": "Log2 fold change", "setting": "[23]", "value": -1.22}, {"measurement": "Log2 fold change", "setting": "[24]", "value": 1.50}, {"measurement": "Log2 fold change", "setting": "[25]", "value": -1.66}, {"measurement": "Log2 fold change", "setting": "[26]", "value": 1.22}, {"measurement": "Log2 fold change", "setting": "[27]", "value": 1.46}, {"measurement": "Log2 fold change", "setting": "[28]", "value": 2.37}, {"measurement": "Log2 fold change", "setting": "[29]", "value": 1.98}, {"measurement": "Log2 fold change", "setting": "[30]", "value": 2.04}, {"measurement": "Log2 fold change", "setting": "[31]", "value": 5.21}, {"measurement": "Log2 fold change", "setting": "[32]", "value": 1.36}]}]}
